Laboratory results reported in patent US10045980B2, “Inhibitor of p38 map kinase” (RESPIVERT LTD, priority 2014, dated 2018).
Where a name gives a salt, the structure may show the parent alone.

How the values were obtained:
[1] = Dynamic vapour sorption (DVS); assay type: physicochemical; conditions: 25° C., RH 0-95%
Description: About 20 mg of test compound was transferred into a SMS dynamic vapor sorption and record the weight change with respect to the atmospheric humidity at 25° C.
The following parameters were used:
drying: 60 min. under dry nitrogen
equilibrium: 60 min/Step.

[2] = Chemical stability testing, degradation by UPLC; assay type: physicochemical; conditions: stored up to 30 days, 50-80° C./10-75% RH; data not shown
Description: Samples were extracted with solvent mixture (DMSO/water 80:20) (7 mL) in a 10 mL vial.
UPLC chromatography was performed using the following parameters:
Analysis run time: 36 min Data collection time: 30 min Injection volume: 5 μL Wavelength: scan between 200 and 400 nm Wavelength used for content uniformity calculations: 334.0 nm
The compositions of Examples 4d, 4e, 4f, 4g, 4h and 4i were stored for 14 and 30 days under conditions of 50° C./75% RH, 60° C./30% RH, 60° C./50% RH, 70° C./10% RH, 70° C./75% RH and 80° C./50% RH.

[3] = test system: sputum macrophages from COPD patients; test: Cytokine production in LPS-treated sputum macrophages from COPD patients; assay type: cell-based; conditions: Homo sapiens, Macrophage; at 0.1 μg/mL; LPS 1 μg/mL, 18 h; read-out: Percent Inhibition IL-6
Description: Patients with COPD inhaled a nebulised solution of 3% (w/v) hypertonic saline using an ultrasonic nebuliser (Devilbiss, Carthage, Mo.) with tidal breathing for 5 min. This procedure was repeated a maximum of three times until enough sputum was obtained. The sputum samples were homogenized and mixed vigorously using a vortex mixer in 0.02% v/v dithiothreitol (DTT) solution. The samples were re-suspended in PBS (40 mL) followed by centrifugation at 1500 rpm at 4° C. for 10 min to obtain sputum cell pellets. The pellets were washed with PBS (40 mL). […]
Where appropriate, 1 μL of a solution containing either the test compound or reference article at the stated concentrations (either 0.1 μg/mL, 0.01 μg/mL, or 0.001 μg/mL) or alternatively 1 μL of DMSO as the vehicle control was added to each well (200 μL in media) and the cells were incubated for 2 h. […] After washing with 200 μL wash buffer per well, the beads were resuspended in sheath fluid (150 μL) and analyzed immediately. The level of each analyte in the supernatant was calculated using Xcel Fit software with a 4 or 5-parameter equation using each standard curve. The inhibitions of each cytokine production were calculated at each concentration by comparison with vehicle control.

[4] = test system: BEAS2B cells; test: Poly I:C-induced ICAM-1 expression in BEAS2B cells; assay type: cell-based; conditions: Homo sapiens, BEAS-2B, 18 h after poly I:C transfection, read-out: PolyIC/ICAM1 IC50 (BEAS2B)
Description: Poly I:C was used in these studies as a simple, RNA virus mimic. Poly I:C-Oligofectamine mixture (2% Oligofectamine±1 μg/mL Poly I:C, 25 μL; Life Technologies and Invivogen Ltd., San Diego, Calif., respectively) was transfected into BEAS2B cells (human bronchial epithelial cells, ATCC). Cells were pre-incubated with final concentrations of test compounds for 2 h and the level of ICAM-1 expression on the cell surface was determined by cell-based ELISA. […]
The cells were washed with PBS-Tween (3×200 μL) and incubated with the secondary antibody (100 μL; HRP-conjugated anti-rabbit IgG, Dako Ltd., Glostrup, Denmark). […] The ICAM-1 signal was detected by reading the absorbance at 450 nm against a reference wavelength of 655 nm using a spectrophotometer. The cells were then washed with PBS-Tween (3×200 μL) and total cell numbers in each well were determined by reading absorbance at 595 nm after Crystal Violet staining (50 μL of a 2% solution in PBS) and elution by 1% SDS solution (100 μL) in PBS. The measured OD 450-655 readings were corrected for cell number by dividing with the OD595 reading in each well. The inhibition of ICAM-1 expression was calculated at each concentration of test compound by comparison with vehicle control.

CCc1cncc(Nc2cc(COc3ccc(NC(=O)Nc4cc(C(C)(C)C)nn4-c4ccc(C)cc4)c4ccccc34)ccn2)n1 [Example 2A, 1-(3-(tert-butyl)-1-(p-tolyl)-1H-pyrazol-5-yl)-3-(4-((2-((6-ethylpyrazin-2-yl)amino)pyridin-4-yl)methoxy)naphthalen-1-yl)urea maleate (Form 2)]
hygroscopicity (DVS) [1]: does not appear to be hygroscopic
hygroscopicity (DVS) ([1]; listed as Example 3B): appeared not to be hygroscopic
percentage of total degradation, unmicronised and unblended material [2]: always lower than that for the free base

CCC(=O)O[C@]1(C(=O)SCF)[C@H](C)C[C@H]2[C@@H]3C[C@H](F)C4=CC(=O)C=C[C@]4(C)[C@@]3(F)[C@@H](O)C[C@@]21C [Fluticasone propionate, fluticasone propionate, reference compound]
inhibition at 0.1 µg/mL [3]: 29 ± 21%

COCC(=O)Nc1cc(Oc2ccc(NC(=O)Nc3cc(C(C)(C)C)nn3-c3ccc(C)cc3)c3ccccc23)ccn1 [Reference Compound, N-(4-(4-(3-(3-tert-Butyl-1-p-tolyl-1H-pyrazol-5-yl)ureido)naphthalen-1-yloxy)pyridin-2-yl)-2-methoxyacetamide, reference compound]
IC50 [4]: 3.8 nM
